From PubChem BioAssay AID1259407 (Chemical Carcinogenesis Research Information System (CCRIS), 2018)
Active and inactive are the calls of the source. No rule for the calls is given here.

Tested on: CCRIS mutagenicity, Ames/micronucleus/aberration tests
Assay: CCRIS mutagenicity studies

`CCOC(C)=O` was tested, and the mutagenic call (End Point: IN VITRO CHROMOSOMAL ABERRATIONS, Test System: CHO-LB CELLS, Metabolic Activation: NONE) was “inactive; negative”, the mutagenic call (End Point: IN VITRO CHROMOSOMAL ABERRATIONS, Test System: CHO-LB CELLS, Metabolic Activation: RAT, LIVER, S-9, AROCLOR 1254) was “inactive; negative” and the mutagenic call (End Point: IN VIVO MICRONUCLEUS, Test System: BONE MARROW POLYCHROMATIC ERYTHROCYTES, Species: MOUSE, Strain/Sex: DDY/MALE, Route: IP) was “inactive; negative”. For the same compound, the mutagenic call (Test System: AMES SALMONELLA TYPHIMURIUM, Strain/Indicator: TA97, Metabolic Activation: HAMSTER, LIVER, S-9, AROCLOR 1254 (10 OR 30%), Method: PREINCUBATION) was “inactive; negative”, the mutagenic call (Test System: AMES SALMONELLA TYPHIMURIUM, Strain/Indicator: TA97, Metabolic Activation: NONE, Method: PREINCUBATION) was “inactive; negative” and the mutagenic call (Test System: AMES SALMONELLA TYPHIMURIUM, Strain/Indicator: TA97, Metabolic Activation: RAT, LIVER, S-9, AROCLOR 1254 (10 OR 30%), Method: PREINCUBATION) was “inactive; negative”. The mutagenic call (Test System: AMES SALMONELLA TYPHIMURIUM, Strain/Indicator: TA98, Metabolic Activation: HAMSTER, LIVER, S-9, AROCLOR 1254 (10 OR 30%), Method: PREINCUBATION) was “inactive; negative”, the mutagenic call (Test System: AMES SALMONELLA TYPHIMURIUM, Strain/Indicator: TA98, Metabolic Activation: NONE, Method: PREINCUBATION) was “inactive; negative” and the mutagenic call (Test System: AMES SALMONELLA TYPHIMURIUM, Strain/Indicator: TA98, Metabolic Activation: RAT, LIVER, S-9, AROCLOR 1254 (10 OR 30%), Method: PREINCUBATION) was “inactive; negative”. For the same compound, the mutagenic call (Test System: AMES SALMONELLA TYPHIMURIUM, Strain/Indicator: TA98, Metabolic Activation: RAT, LIVER, S-9, PHENOBARBITAL AND BETA-NAPHTHOFLAVONE, Method: PREINCUBATION) was “inactive; negative”, the mutagenic call (Test System: AMES SALMONELLA TYPHIMURIUM, Strain/Indicator: TA100, Metabolic Activation: HAMSTER, LIVER, S-9, AROCLOR 1254 (10 OR 30%), Method: PREINCUBATION) was “inactive; negative” and the mutagenic call (Test System: AMES SALMONELLA TYPHIMURIUM, Strain/Indicator: TA100, Metabolic Activation: NONE, Method: PREINCUBATION) was “inactive; negative”. The mutagenic call (Test System: AMES SALMONELLA TYPHIMURIUM, Strain/Indicator: TA100, Metabolic Activation: RAT, LIVER, S-9, AROCLOR 1254 (10 OR 30%), Method: PREINCUBATION) was “inactive; negative”, the mutagenic call (Test System: AMES SALMONELLA TYPHIMURIUM, Strain/Indicator: TA100, Metabolic Activation: RAT, LIVER, S-9, PHENOBARBITAL AND BETA-NAPHTHOFLAVONE, Method: PREINCUBATION) was “inactive; negative” and the mutagenic call (Test System: AMES SALMONELLA TYPHIMURIUM, Strain/Indicator: TA102, Metabolic Activation: NONE, Method: PREINCUBATION) was “inactive; negative”. The mutagenic call (Test System: AMES SALMONELLA TYPHIMURIUM, Strain/Indicator: TA102, Metabolic Activation: RAT, LIVER, S-9, PHENOBARBITAL AND BETA-NAPHTHOFLAVONE, Method: PREINCUBATION) was “inactive; negative”, the mutagenic call (Test System: AMES SALMONELLA TYPHIMURIUM, Strain/Indicator: TA104, Metabolic Activation: NONE, Method: PREINCUBATION) was “inactive; negative” and the mutagenic call (Test System: AMES SALMONELLA TYPHIMURIUM, Strain/Indicator: TA104, Metabolic Activation: RAT, LIVER, S-9, PHENOBARBITAL AND BETA-NAPHTHOFLAVONE, Method: PREINCUBATION) was “inactive; negative”. For the same compound, the mutagenic call (Test System: AMES SALMONELLA TYPHIMURIUM, Strain/Indicator: TA1535, Metabolic Activation: HAMSTER, LIVER, S-9, AROCLOR 1254 (10 OR 30%), Method: PREINCUBATION) was “inactive; negative”, the mutagenic call (Test System: AMES SALMONELLA TYPHIMURIUM, Strain/Indicator: TA1535, Metabolic Activation: NONE, Method: PREINCUBATION) was “inactive; negative” and the mutagenic call (Test System: AMES SALMONELLA TYPHIMURIUM, Strain/Indicator: TA1535, Metabolic Activation: RAT, LIVER, S-9, AROCLOR 1254 (10 OR 30%), Method: PREINCUBATION) was “inactive; negative”. For the same compound, the mutagenic call (Test System: AMES SALMONELLA TYPHIMURIUM, Strain/Indicator: TA1535, Metabolic Activation: RAT, LIVER, S-9, PHENOBARBITAL AND BETA-NAPHTHOFLAVONE, Method: PREINCUBATION) was “inactive; negative”, the mutagenic call (Test System: AMES SALMONELLA TYPHIMURIUM, Strain/Indicator: TA1537, Metabolic Activation: HAMSTER, LIVER, S-9, AROCLOR 1254 (30%), Method: PREINCUBATION) was “inactive; negative” and the mutagenic call (Test System: AMES SALMONELLA TYPHIMURIUM, Strain/Indicator: TA1537, Metabolic Activation: NONE, Method: PREINCUBATION) was “inactive; negative”. For the same compound, the mutagenic call (Test System: AMES SALMONELLA TYPHIMURIUM, Strain/Indicator: TA1537, Metabolic Activation: RAT, LIVER, S-9, AROCLOR 1254 (30%), Method: PREINCUBATION) was “inactive; negative”, the mutagenic call (Test System: AMES SALMONELLA TYPHIMURIUM, Strain/Indicator: TA1537, Metabolic Activation: RAT, LIVER, S-9, PHENOBARBITAL AND BETA-NAPHTHOFLAVONE, Method: PREINCUBATION) was “inactive; negative” and the mutagenic call (Test System: E. COLI, Strain/Indicator: WP2UVRA/PKM101, Metabolic Activation: NONE, Method: PREINCUBATION) was “inactive; negative”. For the same compound, the mutagenic call (Test System: E. COLI, Strain/Indicator: WP2UVRA/PKM101, Metabolic Activation: RAT, LIVER, S-9, PHENOBARBITAL AND BETA-NAPHTHOFLAVONE, Method: PREINCUBATION) was “inactive; negative”, the mutagenic call (Test System: E. COLI, Strain/Indicator: WP2UVRA, Metabolic Activation: NONE, Method: PREINCUBATION) was “inactive; negative” and the mutagenic call (Test System: E. COLI, Strain/Indicator: WP2UVRA, Metabolic Activation: RAT, LIVER, S-9, PHENOBARBITAL AND BETA-NAPHTHOFLAVONE, Method: PREINCUBATION) was “inactive; negative”.

For `COc1ccc2c(OC)c3ccoc3nc2c1`, the mutagenic call (Test System: AMES SALMONELLA TYPHIMURIUM, Strain/Indicator: TA98, Metabolic Activation: RAT, LIVER, S-9, PHENOBARBITAL, Method: STANDARD PLATE) was “active; positive” and the mutagenic call (Test System: AMES SALMONELLA TYPHIMURIUM, Strain/Indicator: TA100, Metabolic Activation: RAT, LIVER, S-9, PHENOBARBITAL, Method: STANDARD PLATE) was “active; positive”.

In the case of `O=c1oc2c([N+](=O)[O-])cccc2c2ccccc12`, the mutagenic call (Test System: AMES SALMONELLA TYPHIMURIUM, Strain/Indicator: TA98(1,8-DNP6), Metabolic Activation: NONE, Method: MICROSUSPENSION) is reported as “active; positive”, the mutagenic call (Test System: AMES SALMONELLA TYPHIMURIUM, Strain/Indicator: TA98(1,8-DNP6), Metabolic Activation: NONE, Method: STANDARD PLATE) is reported as “active; positive” and the mutagenic call (Test System: AMES SALMONELLA TYPHIMURIUM, Strain/Indicator: TA98(NR), Metabolic Activation: NONE, Method: MICROSUSPENSION) is reported as “active; positive”. For the same compound, the mutagenic call (Test System: AMES SALMONELLA TYPHIMURIUM, Strain/Indicator: TA98(NR), Metabolic Activation: NONE, Method: STANDARD PLATE) was “inactive; negative”, the mutagenic call (Test System: AMES SALMONELLA TYPHIMURIUM, Strain/Indicator: TA98(NR), Metabolic Activation: RAT, LIVER, S-9, AROCLOR 1254, Method: STANDARD PLATE) was “active; positive” and the mutagenic call (Test System: AMES SALMONELLA TYPHIMURIUM, Strain/Indicator: TA98, Metabolic Activation: NONE, Method: MICROSUSPENSION) was “active; positive”. For the same compound, the mutagenic call (Test System: AMES SALMONELLA TYPHIMURIUM, Strain/Indicator: TA98, Metabolic Activation: NONE, Method: STANDARD PLATE) was “active; positive”, the mutagenic call (Test System: AMES SALMONELLA TYPHIMURIUM, Strain/Indicator: TA98, Metabolic Activation: RAT, LIVER, S-9, AROCLOR 1254, Method: MICROSUSPENSION) was “active; positive” and the mutagenic call (Test System: AMES SALMONELLA TYPHIMURIUM, Strain/Indicator: TA98, Metabolic Activation: RAT, LIVER, S-9, AROCLOR 1254, Method: STANDARD PLATE) was “active; positive”.
